The source of these data is US6602899B1, “β-D-5 thioxylose derivatives, preparation method and therapeutic use” (Fournier Industrie & Sante, priority 1999, dated 2003).

One data set concerns venous thrombosis. The experiment in a line: venous thrombosis test (venous stasis under hypercoagulation, WESSLER technique, activated factor X). Format: in vivo, Wistar male rats. To be noted: rat; for inhibition in vivo at 5 mg/kg: iv, i.v. in PEG 400, 5 mg/kg, thrombosis induced 2 h after administration, read-out: Activity i.v. T = 2 h (percentage inhibition relative to thrombus weight with vehicle); for Activity p.o. T = 4 h (percentage inhibition of thrombus weight): thrombosis induced 4 h after administration; for Activity p.o. T = 8 h (percentage inhibition of thrombus weight): thrombosis induced 8 h after administration. The method, then:
The test products are administered either orally (tubage) dissolved or suspended in PEG 400, or by intravenous injection dissolved in PEG 400. The concentration of the compounds is calculated so that the amount of solution absorbed is 2 ml/kg by oral administration and 1 ml/kg by intravenous injection. The compounds are generally administered intravenously at a dose of 5 mg/kg. If the test is performed after oral administration, the amount administered is calculated so as to correspond to about 2.10^−5 mol/kg. Thrombosis is induced at a time T (2 h, 4 h or 8 hours) after the administration of the product, and the thrombus formed is removed and weighed. To induce this thrombosis, a venous stasis is created under hypercoagulation according to the technique described by WESSLER (J. Applied Physiol. 1959, pp. 943-946), the hypercoagulating agent used being a solution of activated factor X (Xa) having a concentration of 7.5 nKat/kg, supplied by Biogenic. The results obtained, expressed as the percentage inhibition calculated relative to the weight of a thrombus obtained in the absence of active principle in the vehicle, are collated in Table I below. The activity of the test compounds was checked at different doses after they had been administered either orally (p.o.) or intravenously (i.v.). The thrombosis was induced 4 hours or 8 hours after oral administration of the compound and 2 hours after intravenous administration.

The nature of data set [1]: solubility in injectable solvents. Format: physicochemical. The note with it: especially water and PEG 400.
The test system of the next data set is venous thrombus. The note with it: administered orally, doses of 6 mg/kg and above; cited from earlier work.

Take `C=CCC(=O)O[C@@H]1[C@@H](OC(=O)CC=C)[C@H](OC(=O)CC=C)CS[C@H]1Oc1ccc2c(C)cc(=O)oc2c1` [Ex. 7, 4-Methyl-2-oxo-2H-1-benzopyran-7-yl 2,3,4-tri-O-(2-propenylcarbonyl)-5-thio-β-D-xylopyranoside]: the inhibition in vivo at 5 mg/kg with venous thrombosis was 66%.

On to `Cc1cc(=O)oc2cc(O[C@@H]3SC[C@@H](OC(=O)OCCO)[C@H](OC(=O)OCCO)[C@H]3OC(=O)OCCO)ccc12` [Ex. 9, 4-Methyl-2-oxo-2H-1-benzopyran-7-yl 2,3,4-tri-O-(2-hydroxyethoxycarbonyl)-5-thio-β-D-xylopyranoside], for which the inhibition in vivo at 5 mg/kg with venous thrombosis stood at 27%. In the data set on venous thrombosis (p.o. in PEG 400, 11 mg/kg), the “Activity p.o. T = 4 h (percentage inhibition of thrombus weight)” value is given as 93% and the “Activity p.o. T = 8 h (percentage inhibition of thrombus weight)” value is given as 29%.

Regarding `Cc1cc(=O)oc2cc(O[C@@H]3SC[C@@H](OC(=O)OCC(C)C)[C@H](OC(=O)OCC(C)C)[C@H]3OC(=O)OCC(C)C)ccc12` [Ex. 5, 4-Methyl-2-oxo-2H-1-benzopyran-7-yl 2,3,4-tri-O-(2-methylpropoxycarbonyl)-5-thio-β-D-xylopyranoside], the inhibition in vivo at 5 mg/kg in the data set with venous thrombosis was 65%.

Take `Cc1cc(=O)oc2cc(O[C@@H]3SC[C@@H](O)[C@H](O)[C@H]3O)ccc12` [D, 4-methyl-2-oxo-2H-1-benzopyran-7-yl 5-thio-β-D-xylopyranoside, reference compound]: the “solubility in injectable solvents” value in data set [1] is reported as “insoluble”. Besides, the “reduction of the formation of a venous thrombus” value in the data set on venous thrombus is on record as “more than 80%”. Also, in the data set on venous thrombosis (p.o. in PEG 400, 6 mg/kg), the “Activity p.o. T = 4 h (percentage inhibition of thrombus weight)” value was 84% and the “Activity p.o. T = 8 h (percentage inhibition of thrombus weight)” value came out at 15%.

In the case of `CCCCOC(=O)O[C@@H]1[C@@H](OC(=O)OCCCC)[C@H](OC(=O)OCCCC)CS[C@H]1Oc1ccc2c(C)cc(=O)oc2c1` [Ex. 4, 4-Methyl-2-oxo-2H-1-benzopyran-7-yl 2,3,4-tri-O-butoxycarbonyl-5-thio-β-D-xylopyranoside], in the data set on venous thrombosis, the inhibition in vivo at 5 mg/kg amounted to 60%.

In the case of `COC(=O)O[C@@H]1[C@@H](OC(=O)OC)[C@H](OC(=O)OC)CS[C@H]1Oc1ccc2c(C)cc(=O)oc2c1` [Ex. 1, 4-Methyl-2-oxo-2H-1-benzopyran-7-yl 2,3,4-tri-O-methoxycarbonyl-5-thio-β-D-xylopyranoside], the inhibition in vivo at 5 mg/kg in the data set on venous thrombosis turned out to be 84%. In addition, in the data set on venous thrombosis (p.o. in PEG 400, 9 mg/kg), the “Activity p.o. T = 4 h (percentage inhibition of thrombus weight)” value came to 87% and the “Activity p.o. T = 8 h (percentage inhibition of thrombus weight)” value is recorded as 66%.

As for `C=COC(=O)O[C@@H]1[C@@H](OC(=O)OC=C)[C@H](OC(=O)OC=C)CS[C@H]1Oc1ccc2c(C)cc(=O)oc2c1` [Ex. 8, 4-Methyl-2-oxo-2H-1-benzopyran-7-yl 2,3,4-tri-O-(ethenyloxycarbonyl)-5-thio-β-D-xylopyranoside], the inhibition in vivo at 5 mg/kg in the data set with venous thrombosis came out at 65%.

Turning to `COCCOC(=O)O[C@@H]1[C@@H](OC(=O)OCCOC)[C@H](OC(=O)OCCOC)CS[C@H]1Oc1ccc2c(C)cc(=O)oc2c1` [Ex. 6, 4-Methyl-2-oxo-2H-1-benzopyran-7-yl 2,3,4-tri-O-(2-methoxyethoxycarbonyl)-5-thio-β-D-xylopyranoside], the inhibition in vivo at 5 mg/kg with venous thrombosis came to 52%.

As to `CCOC(=O)O[C@@H]1[C@@H](OC(=O)OCC)[C@H](OC(=O)OCC)CS[C@H]1Oc1ccc2c(C)cc(=O)oc2c1` [Ex. 2, 4-Methyl-2-oxo-2H-1-benzopyran-7-yl 2,3,4-tri-O-ethoxycarbonyl-5-thio-β-D-xylopyranoside], the inhibition in vivo at 5 mg/kg in the data set on venous thrombosis amounted to 73%.

For the compound `CCCOC(=O)O[C@@H]1[C@@H](OC(=O)OCCC)[C@H](OC(=O)OCCC)CS[C@H]1Oc1ccc2c(C)cc(=O)oc2c1` [Ex. 3, 4-Methyl-2-oxo-2H-1-benzopyran-7-yl 2,3,4-tri-O-propoxycarbonyl-5-thio-β-D-xylopyranoside], the inhibition in vivo at 5 mg/kg in the data set with venous thrombosis amounted to 71%.
